Patent publication US20020004500A1, “Vasopeptidase Inhibitors to treat isolated systolic hypertension” (priority 2000, published 2002)

Legend:
neutral endopeptidase = assay: Urinary atrial natriuretic peptide excretion rate in subjects with isolated systolic hypertension; assay type: in vivo, human; settings: once daily 80 mg, at 24 hours after dosing
[1] = tested on: subjects with isolated systolic hypertension; assay: Omapatrilat in subjects with isolated systolic hypertension: trough seated blood pressure, forced- and elective-dose titration versus placebo; assay type: in vivo, human; settings: for Δtrough seated diastolic blood pressure / Δtrough seated systolic blood pressure: week 9, change from baseline, trough 24±3 hours post dose; for percentage of normalized subjects (trough seated systolic blood pressure less than 140 mm Hg): week 9
Experimental: Omapatrilat was studied in subjects with isolated systolic hypertension (seated systolic blood pressure 160-199 mm Hg and diastolic blood pressure less than 90 after 4 weeks of single-blind placebo lead-in). Both a forced-dose titration (at Week 1) and an elective-dose titration (at Week 9) design were used to compare the change from baseline, relative to placebo, in trough (24±3 hours post dose) seated systolic blood pressure after 9 weeks and 13 weeks of once-daily oral administration of 3 dose regimens of omapatrilat. Treatment regimens consisted of omapatrilat 10 mg lead-in maintained at 10 mg at week 1, electively titrated to 20 mg at week 9 for subjects with a seated systolic blood pressure greater than or equal to 140 mm Hg, or omapatrilat 20 mg lead-in maintained at 20 mg at week 1, electively titrated to 40 mg at week 9 for subjects with a seated systolic blood pressure greater than or equal to 140 mm Hg, or omapatrilat 20 mg lead-in increased to 40 mg at week 1, electively titrated to 80 mg at week 9 for subjects with a seated systolic blood pressure greater than or equal to 140 mm Hg. Placebo was mock titrated at weeks 1 and week 9.
429 subjects were randomized. The mean age was 67 years, and mean baseline blood pressure was 169/82 mm Hg. The primary efficacy objective was to compare the change from baseline, relative to placebo, in trough (24±3 hours post dose) seated systolic blood pressure after 9 weeks of once-daily oral administration of 3 dose regimens of omapatrilat.

[2] = omapatrilat 10/10 mg once-daily oral
[3] = omapatrilat 20/20 mg once-daily oral
[4] = omapatrilat 20/40 mg once-daily oral

**Q.** `O=C(N[C@H]1CCSC2CCC[C@@H](C(=O)O)N2C1=O)C(S)Cc1ccccc1` (relative stereo) [Omapatrilat, [4S-[4α(R*), 7α, 10aβ]]-octahydro-4-[(2-mercapto-1-oxo-3-phenylpropyl)amino]-5-oxo-7H-pyrido[2,1-b][1,3]thiazepine-7-carboxylic acid] was tested. Which “urinary atrial natriuretic peptide excretion rate” value (neutral endopeptidase) did it give?
**A.** The value was “persistent elevation”.

**Q.** What about the “systolic and diastolic blood pressure reductions at trough versus placebo regimen” value ([1]; 10/10/20 mg, 20/20/40 mg and 20/40/80 mg once-daily for 13 weeks, predominately elderly subjects) of the same compound?
**A.** The value was “greater systolic blood pressure and diastolic blood pressure reductions at trough than a regimen of placebo”.

**Q.** And the “systolic blood pressure reductions versus placebo” value ([1]; Week 13, after elective titration)?
**A.** The value was “Additional small reductions in systolic blood pressure versus placebo”.

**Q.** What about the “Δtrough seated diastolic blood pressure” value [1, 2] of the same compound?
**A.** Its value is −1.8.

**Q.** What about the “Δtrough seated systolic blood pressure” value [1, 2] of the same compound?
**A.** Its value is −15.9.

**Q.** What about the “percentage of normalized subjects (trough seated systolic blood pressure less than 140 mm Hg)” value (shortened to “percentage of normalized subjects”) ([1]; omapatrilat 10/10 mg) of the same compound?
**A.** The value was 28%.

**Q.** And the “Δtrough seated diastolic blood pressure” value [1, 3]?
**A.** Its value is −2.6.

**Q.** What about the “Δtrough seated systolic blood pressure” value [1, 3] of the same compound?
**A.** The value was −23.1.

**Q.** And the “percentage of normalized subjects” value ([1]; omapatrilat 20/20 mg)?
**A.** The value was 51%.

**Q.** And the “Δtrough seated diastolic blood pressure” value [1, 4]?
**A.** Its value is −4.6.

**Q.** And the “Δtrough seated systolic blood pressure” value [1, 4]?
**A.** Its value is −26.1.

**Q.** What about the “percentage of normalized subjects” value ([1]; omapatrilat 20/40 mg) of the same compound?
**A.** Its value is 47%.

**Q.** What about the “systolic and diastolic blood pressure reductions versus placebo regimen” value ([1]; week 9, all 3 omapatrilat regimens) of the same compound?
**A.** The value was “greater systolic and diastolic blood pressure reductions than the placebo regimen”.
